This test addresses T1, MtBgl85 (Microbulbifer thermotolerans, UniProt Z9ZKX7DI54).
T1 construct: signal peptide (1-25, predicted) removed; N-terminal His6 tag (pCold I); expressed in E. coli BL21 (DE3); precursor 772 residues, mature 747 residues, 81,924 Da; about 85 kDa on SDS-PAGE; monomer
T1 sequence (Z9ZKX7DI54 26-772): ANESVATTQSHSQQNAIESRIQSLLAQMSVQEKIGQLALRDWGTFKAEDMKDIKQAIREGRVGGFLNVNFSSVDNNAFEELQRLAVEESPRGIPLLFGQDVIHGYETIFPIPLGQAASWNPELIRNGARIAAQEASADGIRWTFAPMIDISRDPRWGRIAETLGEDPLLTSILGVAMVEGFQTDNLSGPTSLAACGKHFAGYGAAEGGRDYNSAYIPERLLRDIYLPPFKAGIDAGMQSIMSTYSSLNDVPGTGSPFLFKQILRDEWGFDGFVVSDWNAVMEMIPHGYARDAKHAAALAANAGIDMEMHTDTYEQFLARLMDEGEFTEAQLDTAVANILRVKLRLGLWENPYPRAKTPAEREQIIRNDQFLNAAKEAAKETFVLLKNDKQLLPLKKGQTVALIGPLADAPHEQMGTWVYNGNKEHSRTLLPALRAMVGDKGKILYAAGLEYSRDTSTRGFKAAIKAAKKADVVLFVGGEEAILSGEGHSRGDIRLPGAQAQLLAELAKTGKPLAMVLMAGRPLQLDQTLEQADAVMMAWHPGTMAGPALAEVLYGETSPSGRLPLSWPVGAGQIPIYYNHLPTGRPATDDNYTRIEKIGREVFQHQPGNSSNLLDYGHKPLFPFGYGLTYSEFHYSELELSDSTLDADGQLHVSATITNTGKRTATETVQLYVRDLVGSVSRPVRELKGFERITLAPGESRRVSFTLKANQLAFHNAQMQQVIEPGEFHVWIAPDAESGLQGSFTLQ
The test is described as follows: residual activity with pNPβG. Format: biochemical. Particulars: read-out: % residual activity at 10 mM.

The structures appear in SMILES notation.

Take `OC[C@H]1OC(O)[C@H](O)[C@@H](O)[C@@H]1O` (stereo partly shown) [glucose]: the remaining activity at 10000 µM is 59%.

Values taken from publication PMC6657685, “Cloning, purification, and characterization of GH3 β-glucosidase, MtBgl85, from Microbulbifer thermotolerans DAU221” (PeerJ, 2019).
